Test results: patent publication US12077503B2, “Substituted cyclic amides and their use as herbicides” (FMC CORPORATION, priority 2015, dated 2024)

Legend:
Assay type in all cases: in vivo
Kochia (Kochia scoparia) [1] = assay: Test A preemergence; conditions: for Plant response rating, Kochia: 125 g ai/ha; for Kochia plant response rating (0 to 100 scale, 0 is no effect, 100 is complete control): 500 g ai/ha, visual injury approx. 10 d
Procedure, shortened: (§1)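 Preemergence directed soil spray on seeded pots, or postemergence application to plants 2–10 cm, one- to two-leaf. Solvent mixture non-phytotoxic, with surfactant. Scored ~10 d later, visually, 0–100 vs untreated.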

[2] = system: barnyardgrass (Echinochloa crus-galli); assay: Test A preemergence; conditions: for Plant response rating, Barnyardgrass: 125 g ai/ha; for Barnyardgrass plant response rating (0 to 100 scale, 0 is no effect, 100 is complete control): 500 g ai/ha, visual injury approx. 10 d
Procedure, shortened: as §1

[3] = system: giant foxtail (Setaria faberii); assay: Test A preemergence; conditions: for Plant response rating, Foxtail, Giant: 125 g ai/ha; for Foxtail, Giant plant response rating (0 to 100 scale, 0 is no effect, 100 is complete control): 500 g ai/ha, visual injury approx. 10 d
Procedure, shortened: as §1

[4] = system: pigweed (Amaranthus retroflexus); assay: Test A preemergence; conditions: for Plant response rating, Pigweed: 125 g ai/ha; for Pigweed plant response rating (0 to 100 scale, 0 is no effect, 100 is complete control): 500 g ai/ha, visual injury approx. 10 d
[5] = system: ragweed (common ragweed, Ambrosia elatior); assay: Test A preemergence; conditions: for Plant response rating, Ragweed: 125 g ai/ha; for Ragweed plant response rating (0 to 100 scale, 0 is no effect, 100 is complete control): 500 g ai/ha, visual injury approx. 10 d
Procedure, shortened: as §1

[6] = system: ryegrass, Italian (Italian ryegrass, Lolium multiflorum); assay: Test A preemergence; conditions: for Plant response rating, Ryegrass, Italian: 125 g ai/ha; for Ryegrass, Italian plant response rating (0 to 100 scale, 0 is no effect, 100 is complete control): 500 g ai/ha, visual injury approx. 10 d
Procedure, shortened: as §1

[7] = system: Galium (catchweed bedstraw, Galium aparine); assay: Test A postemergence; conditions: for Galium plant response rating: 125 g ai/ha, visual injury rating on 0 to 100 scale (0 no effect, 100 complete control), approx. 10 d; for Plant response rating, Galium: 500 g ai/ha
Procedure, shortened: as §1

Kochia (Kochia scoparia) [8] = assay: Test A postemergence; conditions: for Kochia plant response rating: 125 g ai/ha, visual injury rating on 0 to 100 scale (0 no effect, 100 complete control), approx. 10 d; for Plant response rating, Kochia: 500 g ai/ha
Procedure, shortened: as §1

[9] = system: barnyardgrass (Echinochloa crus-galli); assay: Test A postemergence; conditions: for Barnyardgrass plant response rating: 125 g ai/ha, visual injury rating on 0 to 100 scale (0 no effect, 100 complete control), approx. 10 d; for Plant response rating, Barnyardgrass: 500 g ai/ha
Procedure, shortened: as §1

[10] = system: blackgrass (Alopecurus myosuroides); assay: Test A postemergence; conditions: for Blackgrass plant response rating: 125 g ai/ha, visual injury rating on 0 to 100 scale (0 no effect, 100 complete control), approx. 10 d; for Plant response rating, Blackgrass: 500 g ai/ha
Procedure, shortened: as §1

corn (Zea mays) = assay: Test A postemergence; conditions: for Corn plant response rating: 125 g ai/ha, visual injury rating on 0 to 100 scale (0 no effect, 100 complete control), approx. 10 d; for Plant response rating, Corn: 500 g ai/ha
Procedure, shortened: as §1

[11] = system: giant foxtail (Setaria faberii); assay: Test A postemergence; conditions: for Foxtail, Giant plant response rating: 125 g ai/ha, visual injury rating on 0 to 100 scale (0 no effect, 100 complete control), approx. 10 d; for Plant response rating, Foxtail, Giant: 500 g ai/ha
Procedure, shortened: as §1

[12] = system: pigweed (Amaranthus retroflexus); assay: Test A postemergence; conditions: for Pigweed plant response rating: 125 g ai/ha, visual injury rating on 0 to 100 scale (0 no effect, 100 complete control), approx. 10 d; for Plant response rating, Pigweed: 500 g ai/ha
Procedure, shortened: as §1

[13] = system: ragweed (common ragweed, Ambrosia elatior); assay: Test A postemergence; conditions: for Ragweed plant response rating: 125 g ai/ha, visual injury rating on 0 to 100 scale (0 no effect, 100 complete control), approx. 10 d; for Plant response rating, Ragweed: 500 g ai/ha
Procedure, shortened: as §1

[14] = system: ryegrass, Italian (Italian ryegrass, Lolium multiflorum); assay: Test A postemergence; conditions: for Ryegrass, Italian plant response rating: 125 g ai/ha, visual injury rating on 0 to 100 scale (0 no effect, 100 complete control), approx. 10 d; for Plant response rating, Ryegrass, Italian: 500 g ai/ha
Procedure, shortened: as §1

[15] = system: wheat (Triticum aestivum); assay: Test A postemergence; conditions: for Wheat plant response rating: 125 g ai/ha, visual injury rating on 0 to 100 scale (0 no effect, 100 complete control), approx. 10 d; for Plant response rating, Wheat: 500 g ai/ha
Procedure, shortened: as §1

[16] = system: barnyardgrass (Echinochloa crus-galli); assay: Test B flooded paddy test; conditions: Flood, 0 to 100 scale where 0 is no effect and 100 is complete control, 13 to 15 d
Procedure, shortened: (§2)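 Flooding to 3 cm over soil accompanied treatment, which consisted of adding compound to the standing water around 2-leaf plants; depth was then maintained. Visual assessment versus controls followed at 13 to 15 d (scale 0–100, 0 meaning no effect).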

[17] = system: ducksalad (Heteranthera limosa); assay: Test B flooded paddy test; conditions: Flood, 0 to 100 scale where 0 is no effect and 100 is complete control, 13 to 15 d
Procedure, shortened: as §2

rice (Oryra sativa) = assay: Test B flooded paddy test; conditions: Flood, 0 to 100 scale where 0 is no effect and 100 is complete control, 13 to 15 d
Procedure, shortened: as §2

[18] = system: sedge, umbrella (small-flower umbrella sedge, Cyperus difformis); assay: Test B flooded paddy test; conditions: Flood, 0 to 100 scale where 0 is no effect and 100 is complete control, 13 to 15 d
Procedure, shortened: as §2

[19] = preemergence, 0 to 100 scale (0 no effect, 100 complete control)
[20] = Preemergence, visual injury after approximately 10 d, 0 to 100 scale where 0 is no effect and 100 is complete control
[21] = Postemergence, 0 to 100 scale where 0 is no effect and 100 is complete control
[22] = postemergence, 0 to 100 scale, 0 no effect, 100 complete control

CC(C)c1ccc(C2CNC(=O)C2C(=O)Nc2cccc(F)c2F)cc1 (centres unmarked) [Compound 470]
Plant response rating, Kochia (Kochia (Kochia scoparia) [1]; [19]): 70 | Kochia plant response rating (0 to 100 scale, 0 is no effect, 100 is complete control) (Kochia (Kochia scoparia) [1]; Preemergence): 40 | Plant response rating, Barnyardgrass [2, 19]: 90 | Barnyardgrass plant response rating (0 to 100 scale, 0 is no effect, 100 is complete control) ([2]; Preemergence): 90 | Plant response rating, Foxtail, Giant [3, 19]: 90 | Foxtail, Giant plant response rating (0 to 100 scale, 0 is no effect, 100 is complete control) ([3]; Preemergence): 90 | Plant response rating, Pigweed [4, 20]: 0 | Pigweed plant response rating (0 to 100 scale, 0 is no effect, 100 is complete control) ([4]; Preemergence): 20 | Plant response rating, Ragweed [5, 20]: 0 | Plant response rating, Ryegrass, Italian [6, 20]: 0 | Ryegrass, Italian plant response rating (0 to 100 scale, 0 is no effect, 100 is complete control) ([6]; Preemergence): 30 | Galium plant response rating ([7]; postemergence): 0 | Plant response rating, Galium [7, 21]: 0 | Kochia plant response rating (Kochia (Kochia scoparia) [8]; postemergence): 0 | Plant response rating, Kochia (Kochia (Kochia scoparia) [8]; [21]): 0 | Barnyardgrass plant response rating ([9]; postemergence): 60 | Plant response rating, Barnyardgrass [9, 22]: 70 | Blackgrass plant response rating ([10]; postemergence): 30 | Plant response rating, Blackgrass [10, 22]: 50 | Corn plant response rating (corn (Zea mays); postemergence): 0 | Plant response rating, Corn (corn (Zea mays); [22]): 0 | Foxtail, Giant plant response rating ([11]; postemergence): 40 | Plant response rating, Foxtail, Giant [11, 21]: 80 | Pigweed plant response rating ([12]; postemergence): 0 | Plant response rating, Pigweed [12, 21]: 0 | Ragweed plant response rating ([13]; postemergence): 0 | Plant response rating, Ragweed [13, 21]: 0 | Ryegrass, Italian plant response rating ([14]; postemergence): 0 | Plant response rating, Ryegrass, Italian [14, 21]: 20 | Wheat plant response rating ([15]; postemergence): 0 | Plant response rating, Wheat [15, 21]: 0 | Plant response rating, Barnyardgrass ([16]; 250 g ai/ha): 0 | Plant response rating, Ducksalad ([17]; 250 g ai/ha): 85 | Plant response rating, Rice (rice (Oryra sativa); 250 g ai/ha): 0 | Plant response rating, Sedge, Umbrella ([18]; 250 g ai/ha): 0

C=C(Cl)CN1CC(c2cccc(C(F)(F)F)c2)C(C(=O)Nc2ccccc2F)C1=O (centres unmarked) [Compound 482]
Plant response rating, Kochia (Kochia (Kochia scoparia) [1]; [20]): 0 | Kochia plant response rating (0 to 100 scale, 0 is no effect, 100 is complete control) (Kochia (Kochia scoparia) [1]; Preemergence): 0 | Plant response rating, Barnyardgrass [2, 20]: 0 | Barnyardgrass plant response rating (0 to 100 scale, 0 is no effect, 100 is complete control) ([2]; Preemergence): 10 | Plant response rating, Foxtail, Giant [3, 20]: 70 | Foxtail, Giant plant response rating (0 to 100 scale, 0 is no effect, 100 is complete control) ([3]; Preemergence): 80 | Plant response rating, Pigweed [4, 20]: 0 | Pigweed plant response rating (0 to 100 scale, 0 is no effect, 100 is complete control) ([4]; Preemergence): 0 | Plant response rating, Ragweed [5, 20]: 0 | Ragweed plant response rating (0 to 100 scale, 0 is no effect, 100 is complete control) ([5]; Preemergence): 0 | Plant response rating, Ryegrass, Italian [6, 20]: 0 | Ryegrass, Italian plant response rating (0 to 100 scale, 0 is no effect, 100 is complete control) ([6]; Preemergence): 0 | Galium plant response rating ([7]; postemergence): 0 | Plant response rating, Galium [7, 21]: 0 | Kochia plant response rating (Kochia (Kochia scoparia) [8]; postemergence): 0 | Plant response rating, Kochia (Kochia (Kochia scoparia) [8]; [21]): 0 | Barnyardgrass plant response rating ([9]; postemergence): 0 | Plant response rating, Barnyardgrass [9, 21]: 20 | Blackgrass plant response rating ([10]; postemergence): 0 | Plant response rating, Blackgrass [10, 21]: 0 | Corn plant response rating (corn (Zea mays); postemergence): 0 | Plant response rating, Corn (corn (Zea mays); [21]): 0 | Foxtail, Giant plant response rating ([11]; postemergence): 0 | Plant response rating, Foxtail, Giant [11, 21]: 20 | Pigweed plant response rating ([12]; postemergence): 0 | Plant response rating, Pigweed [12, 21]: 0 | Ragweed plant response rating ([13]; postemergence): 0 | Plant response rating, Ragweed [13, 21]: 0 | Ryegrass, Italian plant response rating ([14]; postemergence): 0 | Plant response rating, Ryegrass, Italian [14, 21]: 0 | Wheat plant response rating ([15]; postemergence): 0 | Plant response rating, Wheat [15, 21]: 0 | Plant response rating, Barnyardgrass ([16]; 250 g ai/ha): 0 | Plant response rating, Ducksalad ([17]; 250 g ai/ha): 0 | Plant response rating, Rice (rice (Oryra sativa); 250 g ai/ha): 0 | Plant response rating, Sedge, Umbrella ([18]; 250 g ai/ha): 0

COc1cccc(NC(=O)C2C(=O)NCC2c2cccc(OC(F)F)c2)c1F (centres unmarked) [Compound 426]
Plant response rating, Kochia (Kochia (Kochia scoparia) [1]; [19]): 0 | Kochia plant response rating (0 to 100 scale, 0 is no effect, 100 is complete control) (Kochia (Kochia scoparia) [1]; Preemergence): 0 | Plant response rating, Barnyardgrass [2, 19]: 50 | Barnyardgrass plant response rating (0 to 100 scale, 0 is no effect, 100 is complete control) ([2]; Preemergence): 80 | Plant response rating, Foxtail, Giant [3, 19]: 80 | Foxtail, Giant plant response rating (0 to 100 scale, 0 is no effect, 100 is complete control) ([3]; Preemergence): 90 | Plant response rating, Pigweed [4, 19]: 0 | Pigweed plant response rating (0 to 100 scale, 0 is no effect, 100 is complete control) ([4]; Preemergence): 30 | Plant response rating, Ragweed [5, 19]: 0 | Ragweed plant response rating (0 to 100 scale, 0 is no effect, 100 is complete control) ([5]; Preemergence): 0 | Plant response rating, Ryegrass, Italian [6, 19]: 0 | Ryegrass, Italian plant response rating (0 to 100 scale, 0 is no effect, 100 is complete control) ([6]; Preemergence): 0 | Galium plant response rating ([7]; postemergence): 0 | Plant response rating, Galium [7, 22]: 0 | Kochia plant response rating (Kochia (Kochia scoparia) [8]; postemergence): 0 | Plant response rating, Kochia (Kochia (Kochia scoparia) [8]; [22]): 0 | Barnyardgrass plant response rating ([9]; postemergence): 30 | Plant response rating, Barnyardgrass [9, 22]: 70 | Blackgrass plant response rating ([10]; postemergence): 0 | Plant response rating, Blackgrass [10, 22]: 0 | Corn plant response rating (corn (Zea mays); postemergence): 0 | Plant response rating, Corn (corn (Zea mays); [22]): 0 | Foxtail, Giant plant response rating ([11]; postemergence): 20 | Plant response rating, Foxtail, Giant [11, 22]: 60 | Pigweed plant response rating ([12]; postemergence): 0 | Plant response rating, Pigweed [12, 22]: 0 | Ragweed plant response rating ([13]; postemergence): 0 | Plant response rating, Ragweed [13, 22]: 0 | Ryegrass, Italian plant response rating ([14]; postemergence): 0 | Plant response rating, Ryegrass, Italian [14, 22]: 0 | Wheat plant response rating ([15]; postemergence): 0 | Plant response rating, Wheat [15, 22]: 0 | Plant response rating, Barnyardgrass ([16]; 500 g ai/ha): 0 | Plant response rating, Ducksalad ([17]; 500 g ai/ha): 40 | Plant response rating, Rice (rice (Oryra sativa); 500 g ai/ha): 0 | Plant response rating, Sedge, Umbrella ([18]; 500 g ai/ha): 0
